Assay results published in patent US20090099343A1 (priority 2005, published 2009).

Columns and labels:
PrP^Sc [1] = target: PrP^Sc (Mus musculus, UniProt P04925)
PrP^Sc [2] = conditions: for binding to PrP^Sc compared among peptide reagents: pH 4
PrP^Sc [3] = system: PrP^Sc
PrP^Sc [4] = system: PrP^Sc; remark: listed apart in the source

PrP^Sc (Mus musculus, UniProt P04925), sequence (P04925 23-230 limits assumed): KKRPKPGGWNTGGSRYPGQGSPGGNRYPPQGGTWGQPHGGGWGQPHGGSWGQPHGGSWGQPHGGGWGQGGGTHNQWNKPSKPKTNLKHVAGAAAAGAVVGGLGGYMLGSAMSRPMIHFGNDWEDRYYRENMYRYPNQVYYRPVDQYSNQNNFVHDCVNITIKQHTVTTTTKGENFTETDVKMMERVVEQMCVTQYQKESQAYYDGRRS

| Substance | pH of optimal binding to PrP^Sc (PrP^Sc [2]) | binding to PrP^Sc compared among peptide reagents (PrP^Sc [2]) | further results |
| --- | --- | --- | --- |
| (GGG)KKRPKPGG [SEQ ID NO:68] | 8 | bound equally well | binding to PrP^Sc in infected mouse brain homogenate (FIG. 4, lane 5) (PrP^Sc [1]): strong binding |
| (GGG)KKKKKKKK [SEQ ID NO:85] | 8 | bound equally well |  |
| (GGG)QWNKPSKPKTN [SEQ ID NO:14] | 8 | bound equally well |  |
| (GGG)KKRPKPGGWNTGG [SEQ ID NO:67] |  |  | PrP^Sc dissociated from peptide reagent (PrP^Sc [3]): virtually all; PrP^Sc eluted from peptide reagent (PrP^Sc [4]): eluted all |
| GGGQWNKPSK*KTN, wherein * is N-(cyclopropylmethyl)glycine [SEQ ID NO:111] |  |  | PrP^Sc dissociated from peptide reagent with NaCl (PrP^Sc [3]): little was dissociated; tightness of PrP^Sc binding to peptide reagent (PrP^Sc [3]): bound most tightly |
